Legend:
[1] = target: T1, EZH2 within the PRC2 complex (Homo sapiens (Human), UniProt Q15910); assay: EZH2 methyltransferase SPA, biotinylated histone H3K27 peptide substrate (Assay Protocol 2); type: biochemical; conditions: 3H-SAM
Protocol: Compounds contained herein were evaluated for their ability to inhibit the methyltransferase activity of EZH2 within the PRC2 complex. Human PRC2 complex was prepared by co-expressing each of the 5 member proteins (FLAG-EZH2, EED, SUZ12, RbAp48, AEBP2) in Sf9 cells followed by co-purification. Enzyme activity was measured in a scintillation proximity assay (SPA) where a tritiated methyl group is transferred from 3H-SAM to a lysine residue on a biotinylated, unmethylated peptide substrate derived from histone H3. The peptides were captured on streptavidin-coated SPA beads and the resulting signal was read on a ViewLux plate reader.
(§1) Part A. Compound Preparation
• 4. Prepare 10 mM stock of compounds from solid in 100% DMSO. • 5. Set up an 11-point serial dilution (1:4 dilution, top concentration 10 mM) in 100% DMSO for each test compound in a 384 well plate leaving columns 6 and 18 for DMSO controls. • 6. Dispense 10 nL of compound from the dilution plate into reaction plates (Corning, 384-well polystyrene NBS, Cat#3673). Part B. Reagent Preparation Prepare the following solutions: • 7. 1× Base Buffer, 50 mM Tris-HCl, pH 8, 2 mM MgCl2: Per 1 L of base buffer, combine 1 M Tris-HCl, pH 8 (50 mL), 1 M MgCl2 (2 mL), and distilled water (948 mL). • 8. 1× Assay Buffer: Per 10 mL of 1× Assay Buffer, combine 1× Base Buffer (9.96 mL), 1 M DTT (40 uL), and 10% Tween-20 (1 uL) to provide a final concentration of 50 mM Tris-HCl, pH 8, 2 mM MgCl2, 4 mM DTT, 0.001% Tween-20. • 9. 2× Enzyme Solution: Per 10 mL of 2× Enzyme Solution, combine 1× Assay Buffer (9.99 mL) and 3.24 uM EZH2 5 member complex (6.17 uL) to provide a final enzyme concentration of 1 nM.
10. […] Read plates • 2. Read the assay plates on the Viewlux Plate Reader utilizing the 613 nm emission filter or clear filter (300 s exposure). […]
(§2) Percent inhibition was calculated relative to the DMSO control for each compound concentration and the resulting values were fit using standard IC50 fitting parameters within the ABASE data fitting software package.

[2] = target: T1, EZH2 within the PRC2 complex; assay: EZH2 methyltransferase SPA, mononucleosome substrate (Assay Protocol 1); type: biochemical; conditions: mononucleosomes from HeLa cells, 3H-SAM
Protocol: Compounds contained herein were evaluated for their ability to inhibit the methyltransferase activity of EZH2 within the PRC2 complex. Human PRC2 complex was prepared by co-expressing each of the 5 member proteins (FLAG-EZH2, EED, SUZ12, RbAp48, AEBP2) in Sf9 cells followed by co-purification. Enzyme activity was measured in a scintillation proximity assay (SPA) where a tritiated methyl group is transferred from 3H-SAM to a lysine residue on Histone H3 of a mononucleosome, purified from HeLa cells. Mononucleosomes were captured on SPA beads and the resulting signal is read on a ViewLux plate reader.
as §1
• 1. Prepare 10 mM stock of compounds from solid in 100% DMSO. • 2. Set up an 11-point serial dilution (1:3 dilution, top concentration 10 mM) in 100% DMSO for each test compound in a 384 well plate leaving columns 6 and 18 for DMSO controls. • 3. Dispense 100 nL of compound from the dilution plate into reaction plates (Grenier Bio-One, 384-well, Cat#784075). Part B. Reagent Preparation Prepare the following solutions: • 1. 50 mM Tris-HCl, pH 8: Per 1 L of base buffer, combine 1 M Tris-HCl, pH 8 (50 mL) and distilled water (950 mL). • 2. 1× Assay Buffer: Per 10 mL of 1× Assay Buffer, combine 50 mM Tris-HCl, pH 8 (9958 uL), 1 M MgCl2 (20 uL), 2 M DTT (20 uL), and 10% Tween-20 (2 uL) to provide a final concentration of 50 mM Tris-HCl, pH 8, 2 mM MgCl2, 4 mM DTT, 0.002% Tween-20. • 3. 2× Enzyme Solution: Per 10 mL of 2× Enzyme Solution, combine 1× Assay Buffer and PRC2 complex to provide a final enzyme concentration of 10 nM. • 4. SPA Bead Suspension: Per 1 mL of SPA Bead Suspension, combine PS-PEI coated LEADSeeker beads (40 mg) and H2O (1 mL) to provide a final concentration of 40 mg/mL. • 5. […] Read plates • 1. Read the assay plates on the Viewlux Plate Reader utilizing the 613 nm emission filter with a 300 s read time. […]
as §2

T1 sequence (Q15910 whole entry): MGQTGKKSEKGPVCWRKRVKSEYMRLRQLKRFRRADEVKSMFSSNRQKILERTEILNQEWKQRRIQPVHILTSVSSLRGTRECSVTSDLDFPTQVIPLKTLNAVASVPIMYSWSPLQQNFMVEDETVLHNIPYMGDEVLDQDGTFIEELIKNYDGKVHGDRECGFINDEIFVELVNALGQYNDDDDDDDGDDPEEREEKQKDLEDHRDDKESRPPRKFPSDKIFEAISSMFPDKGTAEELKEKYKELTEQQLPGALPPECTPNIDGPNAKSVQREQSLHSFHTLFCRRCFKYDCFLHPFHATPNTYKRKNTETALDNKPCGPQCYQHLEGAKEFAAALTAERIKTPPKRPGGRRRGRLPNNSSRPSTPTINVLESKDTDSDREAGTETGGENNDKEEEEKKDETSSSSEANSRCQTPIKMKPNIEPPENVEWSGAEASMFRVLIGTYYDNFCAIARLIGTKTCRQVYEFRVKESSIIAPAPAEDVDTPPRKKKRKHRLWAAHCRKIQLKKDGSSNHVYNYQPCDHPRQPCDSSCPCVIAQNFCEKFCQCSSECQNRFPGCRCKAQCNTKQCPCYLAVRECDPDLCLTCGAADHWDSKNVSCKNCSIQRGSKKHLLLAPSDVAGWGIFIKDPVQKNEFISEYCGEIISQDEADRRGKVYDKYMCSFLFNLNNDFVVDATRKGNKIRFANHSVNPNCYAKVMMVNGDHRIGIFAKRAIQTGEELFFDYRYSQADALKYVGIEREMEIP
T1 sequence (O75530 whole entry partner): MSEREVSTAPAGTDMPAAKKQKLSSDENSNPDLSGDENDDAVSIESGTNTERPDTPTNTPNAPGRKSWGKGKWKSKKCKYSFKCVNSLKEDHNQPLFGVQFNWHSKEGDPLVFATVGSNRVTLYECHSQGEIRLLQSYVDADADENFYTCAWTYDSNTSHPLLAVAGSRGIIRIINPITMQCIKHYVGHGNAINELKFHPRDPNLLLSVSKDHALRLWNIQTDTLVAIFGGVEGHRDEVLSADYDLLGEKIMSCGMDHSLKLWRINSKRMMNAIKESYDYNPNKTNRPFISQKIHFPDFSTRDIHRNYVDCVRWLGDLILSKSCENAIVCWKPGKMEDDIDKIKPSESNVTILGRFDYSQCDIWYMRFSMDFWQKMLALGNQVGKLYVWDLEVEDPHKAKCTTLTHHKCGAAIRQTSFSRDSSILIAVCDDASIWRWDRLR
T1 sequence (Q15022 whole entry partner): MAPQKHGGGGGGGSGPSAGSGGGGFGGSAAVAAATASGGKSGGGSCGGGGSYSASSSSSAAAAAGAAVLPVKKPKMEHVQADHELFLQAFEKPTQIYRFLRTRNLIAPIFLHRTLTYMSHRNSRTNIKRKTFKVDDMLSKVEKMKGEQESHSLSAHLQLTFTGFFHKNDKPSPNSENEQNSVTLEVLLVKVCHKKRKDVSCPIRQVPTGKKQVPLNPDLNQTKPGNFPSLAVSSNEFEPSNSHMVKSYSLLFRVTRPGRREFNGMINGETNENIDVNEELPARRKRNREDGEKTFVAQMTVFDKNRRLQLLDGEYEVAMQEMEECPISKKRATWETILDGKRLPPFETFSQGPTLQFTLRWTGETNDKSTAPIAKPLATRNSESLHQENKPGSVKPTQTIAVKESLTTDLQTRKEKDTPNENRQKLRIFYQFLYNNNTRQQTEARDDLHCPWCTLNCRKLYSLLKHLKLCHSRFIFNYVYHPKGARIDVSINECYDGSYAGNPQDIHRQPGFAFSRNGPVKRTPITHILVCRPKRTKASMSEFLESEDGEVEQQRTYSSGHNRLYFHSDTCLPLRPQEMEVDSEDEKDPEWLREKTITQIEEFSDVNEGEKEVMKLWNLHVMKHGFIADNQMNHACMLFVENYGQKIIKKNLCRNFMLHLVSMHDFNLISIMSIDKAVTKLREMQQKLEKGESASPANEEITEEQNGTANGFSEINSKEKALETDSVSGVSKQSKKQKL
T1 sequence (Q09028 whole entry partner): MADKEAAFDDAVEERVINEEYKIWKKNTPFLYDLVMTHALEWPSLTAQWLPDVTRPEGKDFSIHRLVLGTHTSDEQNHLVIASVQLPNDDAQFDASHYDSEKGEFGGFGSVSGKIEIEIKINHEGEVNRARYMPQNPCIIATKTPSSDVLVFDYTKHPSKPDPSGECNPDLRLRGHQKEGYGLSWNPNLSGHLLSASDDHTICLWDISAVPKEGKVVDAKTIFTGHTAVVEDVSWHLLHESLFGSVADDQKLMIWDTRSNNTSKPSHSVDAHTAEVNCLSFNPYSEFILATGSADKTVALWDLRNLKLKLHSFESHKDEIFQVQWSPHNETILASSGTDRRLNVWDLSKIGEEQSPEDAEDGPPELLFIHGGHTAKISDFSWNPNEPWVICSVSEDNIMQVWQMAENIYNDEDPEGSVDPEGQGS
T1 sequence (Q6ZN18 whole entry partner): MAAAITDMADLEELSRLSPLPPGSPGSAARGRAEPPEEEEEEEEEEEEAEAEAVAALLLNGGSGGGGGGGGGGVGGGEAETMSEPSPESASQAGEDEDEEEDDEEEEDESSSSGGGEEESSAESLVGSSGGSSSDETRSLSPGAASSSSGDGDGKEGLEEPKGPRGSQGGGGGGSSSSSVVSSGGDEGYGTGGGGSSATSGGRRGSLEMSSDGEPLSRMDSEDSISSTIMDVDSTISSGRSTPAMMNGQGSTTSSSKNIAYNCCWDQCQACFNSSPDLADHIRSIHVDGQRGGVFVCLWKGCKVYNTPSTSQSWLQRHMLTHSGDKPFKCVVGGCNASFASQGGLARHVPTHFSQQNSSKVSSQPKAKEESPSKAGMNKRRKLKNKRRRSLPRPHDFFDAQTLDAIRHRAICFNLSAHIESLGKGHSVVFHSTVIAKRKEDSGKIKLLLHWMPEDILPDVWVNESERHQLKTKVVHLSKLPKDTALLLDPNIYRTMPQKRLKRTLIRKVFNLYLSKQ

IC50 [1]	IC50 [2]	Compound
100 nM	32 nM	CCN(c1scc(C(=O)NCc2c(C)[nH]c(C)cc2=O)c1C)[C@H]1CC[C@H](N(C)C)CC1 [Example 2, N-((2,6-dimethyl-4-oxo-1,4-dihydropyridin-3-yl)methyl)-5-(((trans)-4-(dimethylamino)cyclohexyl)(ethyl)amino)-4-methylthiophene-3-carboxamide]
	316 nM	CCN(c1scc(C(=O)NCc2c(C)[nH]c(C)cc2=O)c1C)C1CCOCC1 [Example 1, N-((2,6-dimethyl-4-oxo-1,4-dihydropyridin-3-yl)methyl)-5-(ethyl(tetrahydro-2H-pyran-4-yl)amino)-4-methylthiophene-3-carboxamide]
16 nM	32 nM	CCN(c1scc(C(=O)NCc2c(C)[nH]c(C)c(N)c2=O)c1C)[C@H]1CC[C@H](N(C)C)CC1 [Example 3, N-((5-amino-2,6-dimethyl-4-oxo-1,4-dihydropyridin-3-yl)methyl)-5-(((trans)-4-(dimethylamino)cyclohexyl)(ethyl)amino)-4-methylthiophene-3-carboxamide]
160 nM		CCN(c1sc(Br)c(C(=O)NCc2c(C)[nH]c(C)cc2=O)c1C)[C@H]1CC[C@H](N(C)C)CC1 [Example 4, 2-Bromo-N-((2,6-dimethyl-4-oxo-1,4-dihydropyridin-3-yl)methyl)-5-(((trans)-4-(dimethylamino)cyclohexyl)(ethyl)amino)-4-methylthiophene-3-carboxamide]

— patent publication US9556157B2, “Enhancer of zeste homolog 2 inhibitors” (GlaxoSmithKline Intellectual Property (No.2) Limited, priority 2013, dated 2017)
